Data taken from US20230234920A1, “Azirine Containing Compounds as Anti-Angiogenesis Agents and a Process for the Preparation Thereof” (COUNCIL OF SCIENTIFIC & INDUSTRIAL RESEARCH, priority 2020, published 2023).

Experiments:
[1] = system: HUVECs; test: Wound healing (scratch) migration assay; format: cell-based, human; conditions: for wound closure: 12 h
Protocol: FIG. 4 represents In vitro wound closure assay showing effect of Compound 1 migration of HUVECs. (A) ECs were incubated with 2.5% FBS in the presence of VEGF, sunitinib and Compound 1 at the indicated concentrations for 24 h after linear scratched wounds were created in the confluent cells. Post treatment photographs were taken at 0 hr, 12 h and 24 h using an inverted microscope at 10×magnification. (B) Data were quantified using Image J software and graphs were plotted by calculating the % migration of that vehicle treated cells (control). Compound 1 inhibits the wound closure by ECs in a dose dependent manner. The values represent the mean±SEM from (n=3) independent experiments with significant difference compared from control at *p<0.05.
As per previous reports, some anti-angiogenic compounds also show anti-migratory effect by modulating the expression of proteins responsible for blood vessels formation. A Scratch was made to the confluent endothelial cells containing VEGF (50 ng/mL) and sunitinib (50 nM) as a positive and negative control respectively and Compound 1 at 250 nM and 125 nM as a test compound. […] This might contribute to its potent anti-angiogenic effect.
Endothelial cells were grown inside 6-well plate at a confluency rate of 90%. And then with the help of 200 μL tip a straight line scratch was made in the middle of the grown ECs. After giving a gentle wash with 1×PBS, control group received vehicle in 2.5% FBS media. VEGF at 50 ng/mL as a positive control and sunitinib at 50 nM concentration was used as a negative control. Compound 1 at a dose concentration of 250 nM and 125 nM were used onto the wounded cells to observe its anti-migratory effect. After 0 h, 12 h and 24 h of post treatment the wound closure area was observed and micrographed using an inverted microscope (Olympus, Centre Valley, Pa., USA) and were analysed by Image J software. Control well at 100% was used to express inhibition percentage and the assay was performed for three-five times independently.

[2] = system: HCT116 colon tumor; test: HCT116 colon tumor model in nude mice; format: in vivo
Protocol: FIG. 12 represents Compound 1 inhibited tumor growth in vivo. Tumor sizes were recorded every alternate day by Vernier caliper measurements and calculated as [4/3*[…]*(length/2)*(width/2)]. (A) Nude mice with induced HCT116 tumor were given vehicle to the control group, sunitinib at (40 mg/kg) as a standard drug given orally and Compound 1 at (25 mg/kg) through IP route for 21 days and tumor regression was calculated for all groups. (B) Nude Mice with induced HCT116 colon tumor were given both, sunitinib and Compound 1 at (25 mg/kg) intra-muscularly for 15 days after attaining a tumor size of 100 mm^3, tumor volume reduction for treated groups were calculated and compared with control. Data are expressed as means±S.E.M. (6 mice/group) with significant difference compared with control at p<0.0001.
HCT 116 (Human colon cancer cell line) cells were trypsinised and the pellet was dissolved in ice chilled 1×PBS. HCT 116 cells suspension to a concentration of (1*10^6) cells in 50 μL PBS solution, were left on ice with occasional agitation. Mice were anaesthetized with ketamine: xylazine (100:10 mg/kg), abdominal side area was shaved and sterilized using 70% ethanol. 50 μL of cell suspension was injected slowly subcutaneously to all the mice. After 2 days, booster dose of tumor cells was injected to all mice as performed previously. The growth of the tumor was measured by using vernier caliper on day 2, 4, 6, 8, 10, 12, 14, 16 18, 20, 23 and presented in the form of tumor volume (mm^3)=[4/3*π*(long axis/2)*(short axis/2)]. After attaining a volume of 100 mm^3 of tumor size, all mice were distributed equally (n=6−8) in 3 groups of controls received vehicle (Olive oil). Sutent (25 mg/kg) as a positive control was given orally and Compound 1 (25 mg/kg) dissolved in olive oil was injected intra-muscularly for 15 days and the tumor size regression was measured on every alternate day as described previously. Post 15 days of treatment, mice from all groups were sacrificed and tumor was excised out and processed further for immunohistochemistry and molecular analysis.

[3] = system: endothelial cell; test: Protein angiogenesis array; format: cell-based; conditions: 260 nM
Protocol: (A) Serum-starved HUVECs were treated with control (0.1% DMSO), sunitinib and Compound 1 at a given concentrations and then incubated for 6 h. The expression level of phospho-VEGFR2 and GAPDH (housekeeping protein) was analyzed by immunoblotting. (B) Blots were quantified with Image-J software and the bar graphs represent the relative density of phospho-VEGFR2 normalized with GAPDH and the data are represented as mean±SEM with significant difference compared with control at *p<0.05. (D) Protein angiogenesis array showing up-regulation of anti-angiogenic protein and down-regulation of pro-angiogenic proteins on endothelial cell treated with Compound 1 at 260 nM.

[4] = Intramuscular pharmacokinetic study of bulk compound 1 and chiral isomers; format: in vivo, male Sprague Dawley (SD) rats; conditions: IM 20 mg/kg
Protocol: In vivo pharmacokinetic study was performed in male Sprague Dawley (SD) rats (n=4). Intramuscular (IM) formulation of bulk of compound 1 as well as chiral isomer-1 and chiral isomer-2 was prepared by dissolving accurately weighed quantity of compound 1 (20 mg) in 1 mL of olive oil followed by vortexing for 2 min and sterilize through syringe filter. Blood samples were collected from the retro orbital plexus of rats under light ether anesthesia into microfuge tubes containing heparin as an anti-coagulant at 0.25, 0.5, 1, 3, 5, 7, 9, 24, 30, 48 and 72 hours post-dosing after intramuscular dose. Plasma sample was harvested by centrifuging the blood at 13000 rpm for 10 min on Sigma 1-15 K (Frankfurt, Germany) and stored frozen at −70±10° C. until bioanalysis. Each plasma sample (100 μl) was processed using protein precipitation method using 200 μl acetonitrile containing medicarpine as internal standard (I.S.) as protein precipitant, and 10 μl of the supernatant was injected for LC-MS/MS.

[5] = male, Sprague-Dawley, rat, plasma, mean ± S.D., n = 4

CCOC(=O)C1N=C1CCc1ccc(OC)cc1 (racemic) [Compound 1, Ethyl 3-(4-methoxyphenethyl)-2H-azirine-2-carboxylate]
wound closure ([1]; 125 nM): 75% | wound closure ([1]; 250 nM): 60% | migration ([1]; 24 h): complete migration | tumor volume ([2]; 25 mg/kg IP route for 21 days, vs vehicle): progressive significant decrease in tumor volume | growth of HCT116 cells xenografts ([2]; 25 mg/kg, 15 days): powerful inhibitory effect | T/C ([2]; 25 mg/kg, day 2): 94.77% | T/C ([2]; 25 mg/kg, day 4): 72.79% | T/C ([2]; 25 mg/kg, day 6): 67.93% | T/C ([2]; 25 mg/kg, day 8): 66.22% | T/C ([2]; 25 mg/kg, day 10): 68.70% | T/C ([2]; 25 mg/kg, day 12): 56.83% | T/C ([2]; 25 mg/kg, day 14): 49.80% | T/C ([2]; 25 mg/kg, day 16): 43.88% | vascular density in tumor tissues (CD31) ([2]; 25 mg/kg, vs control group): reduced the vascular density in tumor tissues | tumor reduction ([2]; in comparison to vehicle treated control group, end of experiment): 62.02% | expression of anti-angiogenic and angiogenic proteins [3]: significantly increased the protein expression of anti-angiogenic proteins and decreased the expression of angiogenic proteins | Cl ([4]; mean ± S.D., n = 4): 3.4 ± 0.327 mL/min/kg | Vd ([4]; mean ± S.D., n = 4): 4.017 ± 0.868 L/kg | concentration at 0.25 h ([4]; male, Sprague-Dawley, rat, plasma, intramuscular, 0.25 h): 2910 ± 950 ng/mL | concentration at 0.5 h ([4]; male, Sprague-Dawley, rat, plasma, intramuscular, 0.5 h): 4440 ± 460 ng/mL | concentration at 1 h ([4]; male, Sprague-Dawley, rat, plasma, intramuscular, 1 h): 3930 ± 1200 ng/mL | concentration at 3 h ([4]; male, Sprague-Dawley, rat, plasma, intramuscular, 3 h): 3240 ± 240 ng/mL | concentration at 5 h ([4]; male, Sprague-Dawley, rat, plasma, intramuscular, 5 h): 2830 ± 320 ng/mL | concentration at 7 h ([4]; male, Sprague-Dawley, rat, plasma, intramuscular, 7 h): 2390 ± 530 ng/mL | concentration at 9 h ([4]; male, Sprague-Dawley, rat, plasma, intramuscular, 9 h): 3210 ± 810 ng/mL | concentration at 24 h ([4]; male, Sprague-Dawley, rat, plasma, intramuscular, 24 h): 1740 ± 240 ng/mL | concentration at 30 h ([4]; male, Sprague-Dawley, rat, plasma, intramuscular, 30 h): 1660 ± 230 ng/mL | concentration at 48 h ([4]; male, Sprague-Dawley, rat, plasma, intramuscular, 48 h): 262 ± 120 ng/mL | concentration at 72 h ([4]; male, Sprague-Dawley, rat, plasma, intramuscular, 72 h): 107 ± 10 ng/mL | AUC(0-inf) [4, 5]: 98600 ± 9400 ng·h/mL | half-life [4, 5]: 13.5 ± 1.7 h | AUC(0-t) ([4]; male, Sprague-Dawley, rat, plasma, mean ± S.D., n = 4, read-out: AUC0-72): 96400 ± 9850 ng·h/mL | Cmax ([4]; male, Sprague-Dawley, rat, plasma, mean ± S.D., n = 4, read-out: Cmax): 4620 ± 435 ng/mL | MRT ([4]; male, Sprague-Dawley, rat, plasma, mean ± S.D., n = 4, read-out: MRT): 18 ± 1.57 h | Tmax ([4]; male, Sprague-Dawley, rat, plasma, mean ± S.D., n = 4, read-out: Tmax): 0.667 ± 0.288 h
